pIC50: −log10 of the molar value. Read-outs that look alike come from different tables or passages of the source. Square brackets hold non-standard residues; d marks the D form. Peptide text beside a SMILES is read from it. * marks the point of attachment. Dolaproine = CO[C@@H]([C@@H]1CCCN1)[C@@H](C)C(=O)O; Dil = CC[C@H](C)[C@H](NC)[C@@H](CC(=O)O)OC; X1 = C[C@@H](N*)[C@@H](O)c1ccccc1; NMeV = CN[C@H](C(=O)O)C(C)C Where only a bound is given, the exact number is not on record here.

Assay [1] concerns HEK 293T (human embryonic kidney cancer cell line). As to the kind of experiment: cells. The following applies: 72 h, read-out: IC50 HEK 293T.
Assay [2] relates to MES SA (human uterine sarcoma). As to the kind of experiment: cells. The following applies: 72 h, read-out: IC50 MES SA.
In assay [3] the test system is MES SA DX (human uterine sarcoma cell line with marked multidrug resistance). The assay is described as follows: cells. The following applies: 72 h, read-out: IC50 MES SA DX.
Assay [4] has as its system MES SA (human uterine sarcoma). To be noted: read-out: IC50 MES SA.
The subject of assay [5] is MES SA DX (human uterine sarcoma cell line with marked multidrug resistance). The following applies: read-out: IC50 MES SA DX.
For assay [6], the system named is HEK 293T (human embryonic kidney cancer cell line). The following applies: read-out: IC50 HEK 293T.

By pIC50 is commonly meant −log10 of the IC50, conventionally taken in molar units. For the compound `COc1c2c(c(O)c3c4c(c(C)cc13)[C@H]1O[C@]3(C5OCCO5)O[C@@H]1[C@@](O)(O4)[C@@]31CO1)C(=O)CCC2` [Trx8, (1S,2S,3aS,4R,13aR)-2-(1,3-Dioxolan-2-yl)-12,13a-dihydroxy-7-methoxy-5-methyl-3a,4,8,9,10,13a-hexahydro-11H-spiro[2,4-epoxyfuro[3,2-b]naphtho[2,3-h]chromene-1,2′-oxiran]-11-one], the values for the pIC50 in assay [1], in assay [2] and in assay [3] were 7.51, 7.29 and 7.31, respectively.

Turning to `COc1c2c(c(O)c3c4c(c(C)cc13)C1OC3(C5OCCCO5)OC1[C@@](OCC=CCO[C@@]15Oc6c(c(C)cc7c(OC)c8c(c(O)c67)C(=O)CCC8)C6OC(C7OCCCO7)(OC61)[C@]51CO1)(O4)[C@@]31CO1)C(=O)CCC2` (stereo partly drawn) [Trx24, (1S,2S,3aS,4R,13aR,1′″S,2′″S,3a′″S,4′″R,13a′″R)-13a,13a′-[(2Z)-but-2-ene-1,4-diylbis(oxy)]bis[2-(1,3-dioxan-2-yl)-12-hydroxy-7-methoxy-5-methyl-3a,4,8,9,10,13a-hexahydro-11H-spiro[2,4-epoxyfuro[3,2-b]naphtho[2,3-h]chromene-1,2′-oxiran]-11-one]], the pIC50 is 6.94 in assay [1], below 6.00 in assay [4] and below 6.00 in assay [5].

Consider `CO[C@@]12Oc3c4c(cc(C)c3[C@H]3O[C@](C5OCCCO5)(O[C@@H]31)[C@]21CO1)C(=O)c1cccc(O)c1C4=O` [Trx31, (1S,2S,3aS,4R,13aR)-2-(1,3-Dioxan-2-yl)-11-hydroxy-13a-methoxy-5-methyl-3a,13a-dihydro-4H-spiro[2,4-epoxyfuro[3,2-b]naphtho[2,3-h]chromene-1,2′-oxirane]-7,12-dione], for which the pIC50 in assay [1] was 8.84; in assay [2], 8.96; in assay [3], 9.19.

Regarding `CC(=O)Oc1c(Cl)ccc2c1C(=O)c1c(cc(C)c3c1O[C@]1(OC(C)=O)[C@H]4O[C@@](C5OCCCO5)(O[C@H]34)[C@]13CO3)C2=O` [Trx32, (1S,2S,3aS,4R,13aS)-10-Chloro-2-(1,3-dioxan-2-yl)-5-methyl-7,12-dioxo-3a,4,7,12-tetrahydro-13aH-spiro[2,4-epoxyfuro[3,2-b]naphtho[2,3-h]chromene-1,2′-oxirane]-11,13a-diyl diacetate], the results for the pIC50 in assay [1], in assay [2] and in assay [3] were 8.17, 8.22 and 8.36, respectively.

`C=CCOC(=O)N(C(C)C)[C@H]1CO[C@@H](O[C@@]23Oc4c(c(C)cc5c(OC)c6c(c(O)c45)C(=O)CCC6)C4OC(C5OCCCO5)(OC42)[C@]32CO2)C[C@@H]1OC` (stereo partly drawn) [Trx18, (1S,13aS)-2-(1,3-Dioxan-2-yl)-12-hydroxy-7-methoxy-5-methyl-11-oxo-3a,4,8,9,10,11-hexahydro-13aH-spiro[2,4-epoxyfuro[3,2-b]naphtho[2,3-h]chromene-1,2′-oxiran]-13a-yl 4-{[(allyloxy)carbonyl](isopropyl)amino}-2,4-dideoxy-3-O-methyl-α-L-threo-pentopyranoside]: the figures for the pIC50 in assay [1], in assay [2] and in assay [3] were 7.40, below 6.00 and below 6.00, respectively.

For `CC(=O)Oc1cccc2c1C(=O)c1c(cc(C)c3c1O[C@]1(OC(C)=O)[C@H]4O[C@@](C5OCCCO5)(O[C@H]34)[C@]13CO3)C2=O` [Trx28, (1S,2S,3aS,4R,13aS)-2-(1,3-Dioxan-2-yl)-5-methyl-7,12-dioxo-3a,4,7,12-tetrahydro-13aH-spiro[2,4-epoxyfuro[3,2-b]naphtho[2,3-h]chromene-1,2′-oxirane]-11,13a-diyl diacetate], the negative logarithm of the IC50 (pIC50) was 7.95 in assay [1], 7.96 in assay [2] and 7.93 in assay [3].

For `COc1c2c(c(O)c3c4c(c(C)cc13)C1OC3(C5OCCCO5)OC1[C@@](OC(C)=O)(O4)[C@@]31CO1)C(=O)CCC2` (stereo partly drawn) [Trx14], the figures for the pIC50 in assay [1], in assay [2] and in assay [3] were 8.16, 8.21 and 7.76, respectively.

As for `COc1c2c(c(O)c3c4c(c(C)cc13)C1O[C@@]3(C5OCCCO5)OC1[C@@](O[C@H]1C[C@H](O)[C@@](O)([C@@H](C)O)[C@H](C)O1)(O4)[C@@]31CO1)C(=O)CCC2` (stereo partly drawn) [Trx23, (1S,2R,13aS)-2-(1,3-dioxan-2-yl)-12-hydroxy-7-methoxy-5-methyl-11-oxo-3a,4,8,9,10,11-hexahydro-13aH-spiro[2,4-epoxyfuro[3,2-b]naphtho[2,3-h]chromene-1,2′-oxiran]-13a-yl 2,6-dideoxy-4-C-[(1R)-1-hydroxyethyl]-α-L-lyxo-hexopyranoside], the pIC50 was 8.56 in assay [1], 8.23 in assay [2] and 7.47 in assay [3].

Regarding `COc1c2c(c(O)c3c4c(c(C)cc13)C1O[C@@]3(C5OCCCO5)OC1C(O[C@H]1C[C@H](OC)[C@@H](NC(C)C)CO1)(O4)[C@@]31CO1)C(=O)CCC2` (stereo partly drawn) [Trx19, (1S,2R)-2-(1,3-dioxan-2-yl)-12-hydroxy-7-methoxy-5-methyl-11-oxo-3a,4,8,9,10,11-hexahydro-13aH-spiro[2,4-epoxyfuro[3,2-b]naphtho[2,3-h]chromene-1,2′-oxiran]-13a-yl 2,4-dideoxy-4-(iso-propylamino)-3-O-methyl-α-L-threo-pentopyranoside], the values for the pIC50 in assay [1], in assay [2] and in assay [3] were 9.11, 9.02 and 7.15, respectively.

As for `COc1c2c(c(O)c3c4c(c(C)cc13)C1OC3(C5OCCCO5)OC1[C@@](O)(O4)[C@@]31CO1)C(=O)CCC2` (stereo partly drawn) [Trx12], the pIC50 in assay [1] is 8.61; in assay [2], 8.43; in assay [3], 8.24.

On to `COCO[C@@]12Oc3c(c(C)cc4c(OC)c5c(c(O)c34)C(=O)CCC5)[C@H]3O[C@](C4OCCO4)(O[C@@H]31)[C@]21CO1` [Trx10, (1S,2S,3aS,4R,13aS)-2-(1,3-Dioxolan-2-yl)-12-hydroxy-7-methoxy-13a-(methoxymethoxy)-5-methyl-3a,4,8,9,10,13a-hexahydro-11H-spiro[2,4-epoxyfuro[3,2-b]naphtho[2,3-h]chromene-1,2′-oxiran]-11-one], for which the pIC50 in assay [1] is 8.82; in assay [2], 8.41; in assay [3] it was 8.66.

For `CC[C@H](C)[C@@H]([C@@H](CC(=O)N1CCC[C@H]1[C@H](OC)[C@@H](C)C(=O)N[C@H](C)[C@@H](O)c1ccccc1)OC)N(C)C(=O)[C@@H](NC(=O)[C@@H](NC)C(C)C)C(C)C` [MMAE, monomethyl auristatin E, reference compound] (H-[NMeV]V[Dil][Dolaproine]-X1), the negative logarithm of the IC50 (pIC50) was 10.10 in assay [6], 10.22 in assay [4] and below 7.15 in assay [5].

In the case of `COc1c2c(c(O)c3c4c(c(C)cc13)C1O[C@@]3(C5OCCCO5)OC1[C@@](O[C@H]1C[C@H](OC(C)=O)[C@@](O)(C(C)=O)[C@H](C)O1)(O4)[C@@]31CO1)C(=O)CCC2` (stereo partly drawn) [Trx20, (1S,2R,13aS)-2-(1,3-dioxan-2-yl)-12-hydroxy-7-methoxy-5-methyl-11-oxo-3a,4,8,9,10,11-hexahydro-13aH-spiro[2,4-epoxyfuro[3,2-b]naphtho[2,3-h]chromene-1,2′-oxiran]-13a-yl 4-C-acetyl-3-O-acetyl-2,6-dideoxy-α-L-lyxo-hexopyranoside], the pIC50 was 8.37 in assay [1], 8.29 in assay [2] and 7.28 in assay [3].

Consider `CO[C@@]12Oc3c4c(cc(C)c3[C@H]3O[C@](C5OCCCO5)(O[C@@H]31)[C@]21CO1)C(=O)c1ccc(Cl)c(OC(C)=O)c1C4=O` [Trx33, (1S,2S,3aS,4R,13aR)-10-Chloro-2-(1,3-dioxan-2-yl)-13a-methoxy-5-methyl-7,12-dioxo-3a,7,12,13a-tetrahydro-4H-spiro[2,4-epoxyfuro[3,2-b]naphtho[2,3-h]chromene-1,2′-oxiran]-11-yl acetate], for which the pIC50 is 7.41 in assay [1], 7.27 in assay [2] and 7.48 in assay [3].

For the compound `CO[C@@]12Oc3c4c(cc(C)c3[C@H]3O[C@](C5OCCCO5)(O[C@@H]31)[C@]21CO1)C(=O)c1cccc(OC(C)=O)c1C4=O` [Trx29, (1S,2S,3aS,4R,13aR)-2-(1,3-Dioxan-2-yl)-13a-methoxy-5-methyl-7,12-dioxo-3a,7,12,13a-tetrahydro-4H-spiro[2,4-epoxyfuro[3,2-b]naphtho[2,3-h]chromene-1,2′-oxiran]-11-yl acetate], the pIC50 in assay [1] was 8.73; in assay [2], 8.84; in assay [3], 8.98.

`C=CCO[C@@]12Oc3c(c(C)cc4c(OC)c5c(c(O)c34)C(=O)CCC5)[C@H]3O[C@](C4OCCCO4)(O[C@@H]31)[C@]21CO1` [Trx17, (1S,2S,3aS,4R,13aR)-13a-(Allyloxy)-2-(1,3-dioxan-2-yl)-12-hydroxy-7-methoxy-5-methyl-3a,4,8,9,10,13a-hexahydro-11H-spiro[2,4-epoxyfuro[3,2-b]naphtho[2,3-h]chromene-1,2′-oxiran]-11-one]: the pIC50 was 8.56 in assay [1], 8.31 in assay [2] and 8.46 in assay [3].

On to `COc1c2c(c(O)c3c4c(c(C)cc13)[C@H]1O[C@]3(C5OCCO5)O[C@@H]1[C@](OC)(O4)[C@@]31CO1)C(=O)CCC2` [Trx9, (1S,2S,3aS,4R,13aS)-2-(1,3-Dioxolan-2-yl)-12-hydroxy-7,13a-dimethoxy-5-methyl-3a,4,8,9,10,13a-hexahydro-11H-spiro[2,4-epoxyfuro[3,2-b]naphtho[2,3-h]chromene-1,2′-oxiran]-11-one], for which the pIC50 in assay [1] is 8.69; in assay [2], 8.33; in assay [3], 8.58.

With `Cc1cc2c(c3c1[C@H]1O[C@]4(C5OCCCO5)O[C@@H]1[C@@](O)(O3)[C@@]41CO1)C(=O)c1c(O)cccc1C2=O` [Trx30, (1S,2S,3aS,4R,13aR)-2-(1,3-Dioxan-2-yl)-11,13a-dihydroxy-5-methyl-3a,13a-dihydro-4H-spiro[2,4-epoxyfuro[3,2-b]naphtho[2,3-h]chromene-1,2′-oxirane]-7,12-dione], the pIC50 in assay [1] was 7.30; in assay [2], 7.38; in assay [3] it was 7.42.

Source of the values: patent publication US20210230178A1, “TRIOXACARCIN ANALOGS AND DIMERS AS POTENT ANTICANCER AGENTS” (William Marsh Rice University, priority 2017, published 2021).
